Results taken from patent publication US20250206747A1, “COELENTERAZINE ANALOGUES” (priority 2023, published 2025).

Molecular target: NANOLUC® luciferase (Oplophorus gracilirostris, UniProt Q9GV45, A31E/A60N/A81I/F95D/I117V/K70R/L54V/L99Q/M102K/N193R/P142E/Q151K/Q38R/Q45L/V71I/Y165I)
Test: Michaelis-Menten analysis of relative luminescence produced by NANOLUC luciferase at various concentrations of coelenterazine analogues
Format: biochemical
Details: 0.01 nM NANOLUC luciferase

Sequence of NANOLUC® luciferase (Q9GV45 other isoform, or with tags, fused parts or gaps with the stated changes): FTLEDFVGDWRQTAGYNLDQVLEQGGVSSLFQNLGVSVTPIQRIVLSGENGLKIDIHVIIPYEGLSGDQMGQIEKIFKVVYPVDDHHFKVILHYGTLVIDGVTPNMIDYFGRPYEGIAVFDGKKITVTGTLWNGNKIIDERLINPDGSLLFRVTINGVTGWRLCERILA

Row | SMILES | Km (Table 1) | Km (Table 2)
1 | O=c1c(Cc2ccco2)nc2c(-c3cnnc(Cl)c3)[nH]c(-c3cccc(F)c3)cn1-2 [Compound 10299] | 0.15 µM | 
2 | COc1cccc(-c2cn3c(=O)c(Cc4ccco4)nc-3c(-c3cnnc(Cl)c3)[nH]2)c1 [Compound 10300] | 0.27 µM | 
3 | O=c1c(Cc2ccco2)nc2c(-c3cnnc(Cl)c3)[nH]c(-c3cccc(F)c3F)cn1-2 [Compound 10427, 8-(6-chloropyridazin-4-yl)-6-(2,3-difluorophenyl)-2-(furan-2-ylmethyl)imidazo[1,2-a]pyrazin-3(7H)-one] |  | 0.16 µM
